Source: ChEMBL document CHEMBL1201862, “PubChem BioAssay data set” (2004)
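Results reflect a 48-hour exposure of cells in 96-well plates to compound at five concentrations. GI50 = concentration required for 50% inhibition of growth.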 Active and inactive are the calls of the source. No stated cut-off is given here; in the data, active = GI50 up to about 1.1 µM and inactive = higher.

Key:
Test in all cases: growth of human tumour cells (NCI), 48 h
[1] = system: HT-29
[2] = system: IGROV-1
[3] = system: LOX IMVI
[4] = system: MDA-MB-231
[5] = system: MDA-MB-435
[6] = system: MDA-N
[7] = system: NCI-H23
[8] = system: NCI-H460
[9] = system: NCI/ADR-RES
[10] = system: OVCAR-8
[11] = system: PC-3
[12] = system: RPMI-8226
[13] = system: RXF 393
[14] = system: SF-268
[15] = system: SF-295
[16] = system: SK-MEL-2
[17] = system: SK-MEL-5
[18] = system: SN12C
[19] = system: SNB-75
[20] = system: UO-31

Structure (SMILES)	GI50 [1]	GI50 [2]	GI50 [3]	GI50 [4]	GI50 [5]	GI50 [6]	GI50 [7]	GI50 [8]	GI50 [9]	GI50 [10]	GI50 [11]	GI50 [12]	GI50 [13]	GI50 [14]	GI50 [15]	GI50 [16]	GI50 [17]	GI50 [18]	GI50 [19]	GI50 [20]
O=C(NCC1Nc2ccncc2S(=O)(=O)N1)c1ccc(Br)cc1 (stereo not given)	> 100 µM (inactive)	80.5 µM (inactive)	38.6 µM (inactive)	20.1 µM (inactive)	19.6 µM (inactive)	23.7 µM (inactive)	66.1 µM (inactive)	> 100 µM (inactive)	59.8 µM (inactive)	35.9 µM (inactive)	17.7 µM (inactive)	32.5 µM (inactive)	> 100 µM (inactive)	27.4 µM (inactive)	> 100 µM (inactive)	14.9 µM (inactive)	> 100 µM (inactive)	> 100 µM (inactive)	73.6 µM (inactive)	25.1 µM (inactive)
O=C(O)C(O)C(O)C(O)C(O)CO.[Ba+2] (stereo not given)	> 100 µM (inactive)	> 100 µM (inactive)	> 100 µM (inactive)	> 100 µM (inactive)	> 100 µM (inactive)	> 100 µM (inactive)	> 100 µM (inactive)	> 100 µM (inactive)	> 100 µM (inactive)	> 100 µM (inactive)	> 100 µM (inactive)	> 100 µM (inactive)	> 100 µM (inactive)	> 100 µM (inactive)	> 100 µM (inactive)	> 100 µM (inactive)	> 100 µM (inactive)	> 100 µM (inactive)	> 100 µM (inactive)	> 100 µM (inactive)
NS(=O)(=O)c1cc2c(cc1Cl)NC(Cc1ccccc1)NS2(=O)=O (stereo not given) [BENZYLHYDROCHLOROTHIAZIDE]	> 100 µM (inactive)	> 100 µM (inactive)	99.8 µM (inactive)	> 100 µM (inactive)	45.1 µM (inactive)	53.7 µM (inactive)	> 100 µM (inactive)	> 100 µM (inactive)	> 100 µM (inactive)	> 100 µM (inactive)	> 100 µM (inactive)	53.1 µM (inactive)	> 100 µM (inactive)	> 100 µM (inactive)	> 100 µM (inactive)	> 100 µM (inactive)	> 100 µM (inactive)	> 100 µM (inactive)	> 100 µM (inactive)	> 100 µM (inactive)
CN(NC(=O)/C(=C/c1ccc(O)cc1)NC(=O)c1ccccc1)c1ccnc2cc(Cl)ccc12	6.4 µM (inactive)	16.3 µM (inactive)	18.8 µM (inactive)	20.7 µM (inactive)	17.3 µM (inactive)	17.4 µM (inactive)	> 10 µM (inactive)	15.6 µM (inactive)	14.5 µM (inactive)	17.8 µM (inactive)	16.6 µM (inactive)	13.4 µM (inactive)	14.6 µM (inactive)	15.1 µM (inactive)	16.4 µM (inactive)	22.3 µM (inactive)	21 µM (inactive)	24.9 µM (inactive)	8.85 µM (inactive)	5.85 µM (inactive)
O=C(CN1CCOCC1)c1ccc2[nH]c(=O)oc2c1	> 100 µM (inactive)	> 100 µM (inactive)	> 100 µM (inactive)	> 100 µM (inactive)	> 100 µM (inactive)	> 100 µM (inactive)	> 100 µM (inactive)	> 100 µM (inactive)	> 100 µM (inactive)	> 100 µM (inactive)	> 100 µM (inactive)	> 100 µM (inactive)	> 100 µM (inactive)	> 100 µM (inactive)	> 100 µM (inactive)	> 100 µM (inactive)	> 100 µM (inactive)	> 100 µM (inactive)	77.4 µM (inactive)	41.9 µM (inactive)
C=C1CC(c2ccc(OCCCN3C(=O)c4ccccc4C3=O)cc2)OC1=O (stereo not given)	2.53 µM (inactive)	1.06 µM (active)	1.36 µM (inactive)	3.95 µM (inactive)	2.52 µM (inactive)	2.79 µM (inactive)	2.35 µM (inactive)	2.07 µM (inactive)	8.09 µM (inactive)	2.71 µM (inactive)	2.92 µM (inactive)	1.12 µM (inactive)	1.99 µM (inactive)	4.32 µM (inactive)	10.5 µM (inactive)	1.96 µM (inactive)	6.64 µM (inactive)	3.31 µM (inactive)	10.6 µM (inactive)	3.74 µM (inactive)
c1cncc(CNc2ncn[nH]2)c1	> 100 µM (inactive)	> 100 µM (inactive)	> 100 µM (inactive)	> 100 µM (inactive)	> 100 µM (inactive)	> 100 µM (inactive)	> 100 µM (inactive)	> 100 µM (inactive)	> 100 µM (inactive)	> 100 µM (inactive)	> 100 µM (inactive)	> 100 µM (inactive)	> 100 µM (inactive)	> 100 µM (inactive)	> 100 µM (inactive)	> 100 µM (inactive)	> 100 µM (inactive)	> 100 µM (inactive)	> 100 µM (inactive)	> 100 µM (inactive)
N=C(Cc1ccccc1)NCC(=O)O	> 100 µM (inactive)	> 100 µM (inactive)	> 100 µM (inactive)	> 100 µM (inactive)	> 100 µM (inactive)	> 100 µM (inactive)	> 100 µM (inactive)	> 100 µM (inactive)	> 100 µM (inactive)	> 100 µM (inactive)	> 100 µM (inactive)	> 100 µM (inactive)	> 100 µM (inactive)	> 100 µM (inactive)	> 100 µM (inactive)	> 100 µM (inactive)	> 100 µM (inactive)	> 100 µM (inactive)	> 100 µM (inactive)	> 100 µM (inactive)
Cc1cc(N)ccc1/N=N\c1ccc(S(=O)(=O)CCOS(=O)(=O)O)cc1	0.767 µM (active)	0.713 µM (active)	0.343 µM (active)	0.215 µM (active)	0.216 µM (active)	0.282 µM (active)	0.7 µM (active)	3.44 µM (inactive)	0.41 µM (active)	0.356 µM (active)	0.292 µM (active)	1 µM (active)	10.8 µM (inactive)	6.11 µM (inactive)	2.63 µM (inactive)	0.605 µM (active)	0.287 µM (active)	0.463 µM (active)	1.04 µM (active)	2 µM (inactive)
O=C(O)C1CCCCC1c1c2ccc(=O)cc-2oc2cc(O)ccc12 (stereo not given)	29.3 µM (inactive)	12.9 µM (inactive)	28.1 µM (inactive)	30.8 µM (inactive)	13.4 µM (inactive)	21.6 µM (inactive)	29.8 µM (inactive)	32.4 µM (inactive)	43.9 µM (inactive)	26.5 µM (inactive)	28.8 µM (inactive)	23 µM (inactive)	18.7 µM (inactive)	33.7 µM (inactive)	31.7 µM (inactive)	29.4 µM (inactive)	36.2 µM (inactive)	41.7 µM (inactive)	25.1 µM (inactive)	61 µM (inactive)
CCCOc1cc2c(cc1O)CC[C@@H]1[C@@H]2CC[C@]2(C)[C@@H](O)CC[C@@H]12	7.57 µM (inactive)	5.48 µM (inactive)	2.74 µM (inactive)	5.56 µM (inactive)	0.284 µM (active)	0.22 µM (active)	3.37 µM (inactive)	1.62 µM (inactive)	1.17 µM (inactive)	4.98 µM (inactive)	4.76 µM (inactive)	1.83 µM (inactive)	2.25 µM (inactive)	6.3 µM (inactive)	2.76 µM (inactive)	2.17 µM (inactive)	2.12 µM (inactive)	4.97 µM (inactive)	2.36 µM (inactive)	4.95 µM (inactive)
Cc1c2ccccc2cc2cccc[n+]12	29.2 µM (inactive)	26.1 µM (inactive)	27.8 µM (inactive)	37.7 µM (inactive)	36 µM (inactive)	37.8 µM (inactive)	18.2 µM (inactive)	35.2 µM (inactive)	> 100 µM (inactive)	31.6 µM (inactive)	30 µM (inactive)	18.7 µM (inactive)	23.3 µM (inactive)	10.4 µM (inactive)	34.8 µM (inactive)	41.3 µM (inactive)	27.4 µM (inactive)	29.6 µM (inactive)	21.9 µM (inactive)	10.6 µM (inactive)
Cc1sc2nc(N(C)C)oc(=O)c2c1C	> 100 µM (inactive)	> 100 µM (inactive)	> 100 µM (inactive)	> 100 µM (inactive)	> 100 µM (inactive)	> 100 µM (inactive)	> 100 µM (inactive)	> 100 µM (inactive)	70 µM (inactive)	73.5 µM (inactive)	63.1 µM (inactive)	41.3 µM (inactive)	25 µM (inactive)	7.01 µM (inactive)	61.2 µM (inactive)	> 100 µM (inactive)	72.4 µM (inactive)	86.1 µM (inactive)	34.5 µM (inactive)	21.6 µM (inactive)
CCCCN1C(=O)C[C@H]2[C@@H]3CCc4cc(OCCN5CCCC5)ccc4[C@H]3CC[C@]2(C)C1=O	0.979 µM (active)	15.7 µM (inactive)	3.19 µM (inactive)	4.71 µM (inactive)	6.31 µM (inactive)	4.38 µM (inactive)	11.4 µM (inactive)	5.79 µM (inactive)	14.7 µM (inactive)	15.1 µM (inactive)	7.48 µM (inactive)	2.96 µM (inactive)	1.89 µM (inactive)	12.9 µM (inactive)	3.9 µM (inactive)	4.67 µM (inactive)	5.94 µM (inactive)	14.2 µM (inactive)	3.4 µM (inactive)	4.6 µM (inactive)
